Tests used:
Assay in all cases: relative viability (nuclei count vs DMSO), 5 days (fraction); higher = more cells survive
Bexarotene + Pemetrexed = compound: C=C(c1ccc(C(=O)O)cc1)c1cc2c(cc1C)C(C)(C)CCC2(C)C [Bexarotene] + Nc1nc2[nH]cc(CCc3ccc(C(=O)N[C@@H](CCC(=O)O)C(=O)O)cc3)c2c(=O)[nH]1 [Pemetrexed] (partner 0.2 µM)
Summary of the method: (§1)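 Dosing by pin tool came one day after lung cancer cell lines were seeded in 1536-well plates, using either one drug or a fixed anchor-drug dose plus five library-drug doses (not always all listed) in √10 steps. After 5 days, nuclei were counted on 4× images. Relative viability is treated-well nuclei count divided by vehicle-well nuclei count, and values are medians of duplicate plates.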

Bexarotene + Linsitinib = compound: C=C(c1ccc(C(=O)O)cc1)c1cc2c(cc1C)C(C)(C)CCC2(C)C [Bexarotene] + C[C@]1(O)C[C@@H](c2nc(-c3ccc4ccc(-c5ccccc5)nc4c3)c3c(N)nccn32)C1 [Linsitinib] (partner 1 µM)
Summary of the method: as §1

Bexarotene + Vorinostat = compound: C=C(c1ccc(C(=O)O)cc1)c1cc2c(cc1C)C(C)(C)CCC2(C)C [Bexarotene] + O=C(CCCCCCC(=O)Nc1ccccc1)NO [Vorinostat] (partner 1 µM)
Summary of the method: as §1

Bexarotene + Navitoclax = compound: C=C(c1ccc(C(=O)O)cc1)c1cc2c(cc1C)C(C)(C)CCC2(C)C [Bexarotene] + CC1(C)CCC(c2ccc(Cl)cc2)=C(CN2CCN(c3ccc(C(=O)NS(=O)(=O)c4ccc(N[C@H](CCN5CCOCC5)CSc5ccccc5)c(S(=O)(=O)C(F)(F)F)c4)cc3)CC2)C1 [Navitoclax] (partner 0.5 µM)
Summary of the method: as §1

Cell Line | relative viability (Bexarotene + Pemetrexed; first compound 0.08 µM) | relative viability (Bexarotene + Pemetrexed; first compound 0.253 µM) | relative viability (Bexarotene + Pemetrexed; first compound 0.8 µM) | relative viability (Bexarotene + Pemetrexed; first compound 2.53 µM) | relative viability (Bexarotene + Pemetrexed; first compound 8 µM) | relative viability (Bexarotene + Linsitinib; first compound 0.08 µM) | relative viability (Bexarotene + Linsitinib; first compound 0.253 µM) | relative viability (Bexarotene + Linsitinib; first compound 0.8 µM) | relative viability (Bexarotene + Linsitinib; first compound 2.53 µM) | relative viability (Bexarotene + Linsitinib; first compound 8 µM) | relative viability (Bexarotene + Vorinostat; first compound 0.08 µM) | relative viability (Bexarotene + Vorinostat; first compound 0.253 µM) | relative viability (Bexarotene + Vorinostat; first compound 0.8 µM) | relative viability (Bexarotene + Vorinostat; first compound 2.53 µM) | relative viability (Bexarotene + Vorinostat; first compound 8 µM) | relative viability (Bexarotene + Navitoclax; first compound 0.08 µM) | relative viability (Bexarotene + Navitoclax; first compound 0.253 µM) | relative viability (Bexarotene + Navitoclax; first compound 0.8 µM) | relative viability (Bexarotene + Navitoclax; first compound 2.53 µM) | relative viability (Bexarotene + Navitoclax; first compound 8 µM)
HCC-366 | 0.203 | 0.14 | 0.2 | 0.141 | 0.17 | 1.1 | 0.781 | 0.774 | 0.715 | 0.635 | 0.361 | 0.487 | 0.329 | 0.276 | 0.328 | 1.04 | 1.15 | 1.14 | 0.975 | 1.03
HCC-827 | 0.285 | 0.271 | 0.263 | 0.317 | 0.245 | 1.01 | 0.966 | 0.896 | 0.906 | 0.854 | 0.906 | 0.674 | 0.775 | 0.781 | 0.821 | 1.06 | 1.05 | 0.97 | 0.975 | 0.868
HOP-62 | 0.332 | 0.297 | 0.336 | 0.314 | 0.361 | 1.01 | 1.17 | 1.15 | 1.02 | 0.909 | 0.808 | 0.831 | 0.709 | 0.555 | 0.624 | 1.02 | 1.07 | 1.26 | 1.01 | 1.17
IA-LM | – | – | – | – | – | 0.682 | 0.581 | 0.523 | 0.603 | 0.51 | 0.79 | 0.817 | 0.756 | 0.718 | 0.7 | 0.6 | 0.785 | 0.724 | 0.603 | 0.664
LC-2-ad | 0.294 | 0.279 | 0.28 | 0.247 | 0.302 | 0.88 | 0.94 | 0.742 | 0.786 | 0.881 | 0.82 | 0.845 | 0.744 | 0.703 | 0.665 | 0.576 | 0.485 | 0.432 | 0.368 | 0.284
LCLC-97TM1 | 0.193 | 0.159 | 0.172 | 0.202 | 0.168 | 0.185 | 0.193 | 0.185 | 0.207 | 0.224 | 1.02 | 0.804 | 0.586 | 0.656 | 0.678 | 0.459 | 0.4 | 0.413 | 0.427 | 0.381
LCLC-103H | 0.462 | 0.453 | 0.462 | 0.436 | 0.472 | 1.24 | 1.15 | 1 | 1.06 | 1.14 | 0.891 | 0.976 | 0.691 | 0.771 | 0.875 | – | – | – | – | –
LK-2 | 0.353 | 0.292 | 0.285 | 0.275 | 0.238 | 0.513 | 0.713 | 0.692 | 0.705 | 0.773 | 0.337 | 0.278 | 0.342 | 0.277 | 0.332 | 1.1 | 0.782 | 0.935 | 0.944 | 0.802
NCI-H358 | 0.182 | 0.184 | 0.144 | 0.167 | 0.158 | 0.874 | 0.699 | 0.568 | 0.778 | 0.643 | 0.7 | 0.798 | 0.667 | 0.934 | 0.703 | – | – | – | – | –
NCI-H522 | 1.01 | 1.18 | 1.11 | 0.855 | 0.862 | – | – | – | – | – | 0.961 | 0.862 | 0.977 | 0.94 | 1.01 | – | – | – | – | –
NCI-H650 | 1.09 | 0.887 | 0.882 | 0.832 | 0.918 | 0.869 | 0.926 | 0.793 | 0.645 | 0.83 | 0.542 | 0.497 | 0.429 | 0.457 | 0.467 | – | – | – | – | –
NCI-H661 | 1.05 | 0.91 | 0.892 | 0.872 | 0.869 | 0.533 | 0.611 | 0.437 | 0.587 | 0.549 | 0.876 | 0.814 | 0.878 | 0.861 | 0.808 | – | – | – | – | –
NCI-H727 | – | – | – | – | – | 0.286 | 0.408 | 0.305 | 0.311 | 0.284 | 1.46 | 1.16 | 1.26 | 1.18 | 0.971 | 0.467 | 0.38 | 0.452 | 0.354 | 0.405
NCI-H1563 | 0.753 | 0.632 | 0.745 | 0.682 | 0.85 | 1.21 | 1.28 | 1.03 | 1.06 | 1.04 | – | – | – | – | – | – | – | – | – | –
NCI-H1648 | 0.897 | 0.738 | 0.676 | 0.585 | 0.619 | – | – | – | – | – | 0.477 | 0.422 | 0.455 | 0.518 | 0.639 | – | – | – | – | –
NCI-H1650 | 0.353 | 0.371 | 0.352 | 0.379 | 0.432 | – | – | – | – | – | 0.524 | 0.548 | 0.579 | 0.676 | 0.736 | 1.37 | 1.4 | 1.34 | 1.21 | 1.3
NCI-H1703 | – | – | – | – | – | 0.846 | 1.02 | 1.02 | 0.619 | 0.629 | – | – | – | – | – | 1.08 | 1.14 | 0.915 | 0.913 | 0.692
NCI-H1792 | 1.1 | 0.848 | 0.487 | 0.482 | 0.455 | 0.437 | 0.586 | 0.259 | 0.422 | 0.342 | – | – | – | – | – | 0.588 | 0.515 | 0.489 | 0.297 | 0.579
NCI-H2170 | 0.265 | 0.272 | 0.254 | 0.258 | 0.27 | – | – | – | – | – | 0.746 | 0.913 | 0.753 | 0.699 | 0.687 | 0.578 | 0.606 | 0.615 | 0.55 | 0.559
NCI-H2342 | 0.827 | 0.739 | 0.747 | 0.825 | 0.797 | – | – | – | – | – | 0.758 | 0.647 | 0.666 | 0.571 | 0.731 | – | – | – | – | –
SW 900 | 0.509 | 0.465 | 0.456 | 0.454 | 0.477 | – | – | – | – | – | 0.543 | 0.473 | 0.433 | 0.453 | 0.471 | – | – | – | – | –
